Measured values published in PubChem BioAssay AID248 (DTP/NCI, 2004).
Where “and” joins values, the source holds several entries; their conditions need not be identical. Equal values may be shown once. Toxic doses and inconclusive results are not listed. Rule as the data show it: active = T/C of 150% or more; inactive = T/C below 125%.

Test system: L1210 leukemia ip in BDF1 mice, survival T/C
Assay: NCI In Vivo Anticancer Drug Screen. Data for tumor model L1210 Leukemia (intraperitoneal) in B6D2F1 (BDF1) mice
Settings: endpoint: mean survival time, higher = longer survival
Method in brief: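 Value reflects the ratio of survival in compound-treated mice to survival in vehicle-treated controls, with both groups carrying the same transplanted tumor.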

[1] = dose: 100.0 mg/kg/injection, schedule: Q01DX001 (ip), vehicle: saline
[2] = dose: 200.0 mg/kg/injection, schedule: Q04DX002 (ip), vehicle: saline
[3] = dose: 400.0 mg/kg/injection, schedule: Q04DX002 (ip), vehicle: saline
[4] = dose: 100.0 mg/kg/injection, schedule: Q04DX002 (ip), vehicle: Klucel (hydroxypropylcellulose) (HPC)
[5] = dose: 200.0 mg/kg/injection, schedule: Q04DX002 (ip), vehicle: Klucel (hydroxypropylcellulose) (HPC)
[6] = dose: 400.0 mg/kg/injection, schedule: Q04DX002 (ip), vehicle: Klucel (hydroxypropylcellulose) (HPC)
[7] = dose: 100.0 mg/kg/injection, schedule: Q01DX001 (ip), vehicle: Klucel (hydroxypropylcellulose) (HPC)
[8] = dose: 400.0 mg/kg/injection, schedule: Q01DX001 (ip), vehicle: Klucel (hydroxypropylcellulose) (HPC)
[9] = dose: 200.0 mg/kg/injection, schedule: Q01DX001 (ip), vehicle: saline
[10] = dose: 400.0 mg/kg/injection, schedule: Q01DX001 (ip), vehicle: saline
[11] = dose: 50.0 mg/kg/injection, schedule: Q04DX002 (ip), vehicle: Klucel (hydroxypropylcellulose) (HPC)

Measured: T/C

CCOC(=O)C(C)(O)C(C)(Cl)c1ccccc1 (configuration not stated)
inactive: dose: 25.0 mg/kg/injection, schedule: Q01DX009 (ip), vehicle: Klucel (hydroxypropylcellulose) (HPC) 98 % of control | dose: 25.0 mg/kg/injection, schedule: Q04DX002 (ip), vehicle: saline 102 % of control | dose: 28.0 mg/kg/injection, schedule: Q01DX001 (ip), vehicle: saline 107 % of control | dose: 44.0 mg/kg/injection, schedule: Q01DX001 (ip), vehicle: saline 106 % of control | dose: 50.0 mg/kg/injection, schedule: Q01DX009 (ip), vehicle: Klucel (hydroxypropylcellulose) (HPC) 96 % of control | dose: 50.0 mg/kg/injection, schedule: Q04DX002 (ip), vehicle: saline 114 % of control | dose: 66.0 mg/kg/injection, schedule: Q01DX001 (ip), vehicle: saline 104 % of control | [1] 101 % of control | dose: 100.0 mg/kg/injection, schedule: Q01DX009 (ip), vehicle: Klucel (hydroxypropylcellulose) (HPC) 101 % of control | dose: 150.0 mg/kg/injection, schedule: Q01DX001 (ip), vehicle: saline 104 % of control | dose: 200.0 mg/kg/injection, schedule: Q01DX009 (ip), vehicle: Klucel (hydroxypropylcellulose) (HPC) 98 % of control | [2] 109 % of control and 111 % of control | [3] 114 % of control

[O-][n+]1c2ccccc2nc2cc(Cl)ccc21
inactive: dose: 100.0 mg/kg/injection, schedule: Q04DX003 (ip), vehicle: Klucel (hydroxypropylcellulose) (HPC) 107 % of control | dose: 200.0 mg/kg/injection, schedule: Q04DX003 (ip), vehicle: Klucel (hydroxypropylcellulose) (HPC) 100 % of control | dose: 400.0 mg/kg/injection, schedule: Q04DX003 (ip), vehicle: Klucel (hydroxypropylcellulose) (HPC) 96 % of control

CC1CCCC/C1=N/NC(=O)c1ccccc1 (configuration not stated)
inactive: dose: 50.0 mg/kg/injection, schedule: Q01DX009 (ip), vehicle: saline with Tween-80 95 % of control | dose: 100.0 mg/kg/injection, schedule: Q01DX009 (ip), vehicle: saline with Tween-80 110 % of control | dose: 200.0 mg/kg/injection, schedule: Q01DX009 (ip), vehicle: saline with Tween-80 108 % of control

COC1(OC)C2CCC1C(OS(=O)(=O)c1ccc(C)cc1)C2 (configuration not stated)
inactive: [4] 103 % of control | [5] 106 % of control | [6] 100 % of control

Nc1ccc2c3c(cccc13)C(=O)OC2=O
inactive: [7] 91 % of control | dose: 100.0 mg/kg/injection, schedule: Q01DX009 (ip), vehicle: saline 92 % of control | dose: 200.0 mg/kg/injection, schedule: Q01DX001 (ip), vehicle: Klucel (hydroxypropylcellulose) (HPC) 94 % of control | dose: 200.0 mg/kg/injection, schedule: Q01DX009 (ip), vehicle: saline 95 % of control | [8] 94 % of control | dose: 400.0 mg/kg/injection, schedule: Q01DX009 (ip), vehicle: saline 90 % of control

C(=C\c1nc2ccccc2s1)/c1ccccc1
inactive: dose: 100.0 mg/kg/injection, schedule: Q04DX003 (ip), vehicle: saline 103 % of control | dose: 200.0 mg/kg/injection, schedule: Q04DX003 (ip), vehicle: saline 93 % of control | dose: 400.0 mg/kg/injection, schedule: Q04DX003 (ip), vehicle: saline 104 % of control

c1ccc(-c2nc3nncn3nc2-c2ccccc2)cc1
inactive: [1] 94 % of control | [9] 99 % of control | [10] 98 % of control

ClC12CCC(Cl)(CC1)CC2
inactive: dose: 75.0 mg/kg/injection, schedule: Q01DX001 (ip), vehicle: acetone 103 % of control

Brc1cnc[nH]1
inactive: dose: 25.0 mg/kg/injection, schedule: Q01DX009 (ip), vehicle: water 97 % of control | dose: 50.0 mg/kg/injection, schedule: Q01DX009 (ip), vehicle: water 90 % of control | dose: 100.0 mg/kg/injection, schedule: Q01DX009 (ip), vehicle: water 102 % of control | dose: 100.0 mg/kg/injection, schedule: Q04DX002 (ip), vehicle: saline 100 % of control | [2] 95 % of control | dose: 400.0 mg/kg/injection, schedule: Q01DX009 (ip), vehicle: water 98 % of control | [3] 92 % of control

O=S(=O)(O)c1ccc2cc(N=Nc3c(O)ccc4ccccc34)ccc2c1
inactive: dose: 100.0 mg/kg/injection, schedule: Q04DX003 (ip), vehicle: carboxymethylcellulose (CMC) 95 % of control | dose: 200.0 mg/kg/injection, schedule: Q04DX003 (ip), vehicle: carboxymethylcellulose (CMC) 103 % of control | dose: 400.0 mg/kg/injection, schedule: Q04DX003 (ip), vehicle: carboxymethylcellulose (CMC) 95 % of control

CC(=O)OCC(CS(=O)c1c(Cl)c(Cl)c(Cl)c(Cl)c1Cl)OC(C)=O (configuration not stated)
inactive: dose: 25.0 mg/kg/injection, schedule: Q04DX002 (ip), vehicle: Klucel (hydroxypropylcellulose) (HPC) 93 % of control | [11] 86 % of control | [4] 106 % of control and 89 % of control | [5] 97 % of control and 124 % of control | [6] 109 % of control

BrC1(c2ccccc2)C(c2ccccc2)=C1c1ccccc1
inactive: dose: 50.0 mg/kg/injection, schedule: Q01DX001 (ip), vehicle: carboxymethylcellulose (CMC) 94 % of control | dose: 100.0 mg/kg/injection, schedule: Q01DX001 (ip), vehicle: carboxymethylcellulose (CMC) 94 % of control | dose: 200.0 mg/kg/injection, schedule: Q01DX001 (ip), vehicle: carboxymethylcellulose (CMC) 96 % of control

O=C(O)/C=C(\CC(=O)O)C(=O)O
inactive: [7] 95 % of control | [1] 92 % of control | [9] 90 % of control | [8] 95 % of control | [10] 98 % of control

Cc1ccc(C)c(/C(=N\N=C(N)N)C2CC2)c1
inactive: dose: 15.0 mg/kg/injection, schedule: Q01DX Z (ip), vehicle: methylcellulose (MC) 103 % of control | dose: 30.0 mg/kg/injection, schedule: Q01DX Z (ip), vehicle: methylcellulose (MC) 99 % of control | dose: 30.0 mg/kg/injection, schedule: Q01DX Z (oral), vehicle: methylcellulose (MC) 103 % of control | dose: 60.0 mg/kg/injection, schedule: Q01DX Z (ip), vehicle: methylcellulose (MC) 100 % of control | dose: 60.0 mg/kg/injection, schedule: Q01DX Z (oral), vehicle: methylcellulose (MC) 94 % of control | dose: 120.0 mg/kg/injection, schedule: Q01DX Z (oral), vehicle: methylcellulose (MC) 100 % of control

O=c1[nH]cnc2c1ncn2Cc1cccc(Cl)c1
inactive: [11] 86 % of control | [4] 94 % of control | [5] 91 % of control
